Legend:
sigma receptors [1] = target: T1, sigma receptors (Cavia porcellus, UniProt Q60492); assay: sigma receptor binding, [^3 H](+)-pentazocine; parameters: species or system guinea pig; settings: approximately 0.5 nM radioligand, 37° C., 150 min; for inhibition at 10 µM: percent (%) inhibition of binding at 10 μM, guinea pig brain membranes; for Ki: mean of at least two separate determinations performed in triplicate
T1 construct: Brain tissue was prepared from male Hartley guinea pigs; tissue Hazelton Labs; host or cells: brain membranes of male Hartley guinea pigs
T1 sequence (Q60492 whole entry): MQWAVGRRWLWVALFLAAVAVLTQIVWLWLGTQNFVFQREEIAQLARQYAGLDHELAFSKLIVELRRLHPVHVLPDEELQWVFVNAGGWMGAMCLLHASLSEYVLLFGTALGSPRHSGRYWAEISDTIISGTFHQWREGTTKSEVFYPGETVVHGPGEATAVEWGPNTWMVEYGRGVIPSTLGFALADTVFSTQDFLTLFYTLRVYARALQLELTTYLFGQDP
Procedure: (§1) Brain tissue was prepared from male Hartley guinea pigs (Hazelton Labs, Denver, Pa.) which were anesthetized with CO2 and sacrificed by decapitation. All animal care and use procedures were in accord with the "Guide for the Care and Use of Laboratory Animals" (NIH Publ. No. 86-23, 1985). Homogenization was performed in 10 volumes (wt/vol) of 0.32M sucrose with a Brinkmann Polytron at setting 5, 30 sec. The homogenate was centrifuged at 900 x g for 10 min at 4° C., and the supernatant was collected and centrifuged at 22,000 x g for 20 min at 4° C. The pellet was resuspended in 10 volumes of Tris-HCl buffer (50 mM, pH 7.4), incubated at 37° C. for 30 min, and centrifuged at 22,000 x g for 20 min at 4° C. Following this, the pellet was resuspended in Tris buffer and frozen in 5-10 mL aliquots corresponding to a tissue concentration of 100 mg/mL, at -70° C. Binding characteristics of the membranes were stable for at least one month when stored at -70° C.
On the day of the assay, membrane aliquots were thawed, resuspended in fresh Tris-HCl buffer and stored on ice until use. Each assay tube contained 100 μL of [^3 H]-(+)-pentazocine at a final concentration of approximately 0.5 nM or 100 μL of [^3 H]di(2-tolyl)guanidine (DTG) at a final concentration of approximately 4 nM, 100 μL of various concentrations of the compounds of interest, 500 μL of the tissue suspension and 300 μL of buffer to a final assay volume of 1 mL and a final tissue concentration of approximately 8 mg/tube, corresponding to approximately 0.15 mg protein/tube. Non-specific binding was defined by addition of a final concentration of 1 μM haloperidol to blank tubes for [^3 H](+)-pentazocine assay or by addition of a final concentration of 10 μM haloperidol to blank tubes for [^3 H]DTG assay. All tubes were incubated at 37° C. for 150 min in the [^3 H](+)-pentazocine assay or at 25° C. for 90 min in the [^3 H]DTG assay before termination of the reaction by rapid filtration over Whatman GF/B glass fiber filters that were presoaked in a solution of 0.5% polyethyleneimine for at least 1 hr prior to use. Filters were washed with three 4 ml volumes of cold Tris-HCl buffer.
Following addition of scintillation cocktail, samples were allowed to equilibrate for at least 4 hr. The amount of bound radioactivity was determined by liquid scintillation spectrometry using a Beckman LS 5000 TA liquid scintillation counter with an efficiency for tritium of approximately 60%. The results are reported as a percent (%) inhibition of binding at 10 μM.
(§2) Scatchard parameters and inhibition constants (Ki values) for the binding of test compounds were also calculated using the EBDA/LIGAND program (McPherson, J Pharmacol. Meth. 1985, 14, 213-228), purchased from Elsevier/Biosoft, Inc. The Ki values are expressed as the mean of at least two separate determinations performed in triplicate.

sigma receptors [2] = assay: sigma receptor binding, [^3 H]di(2-tolyl)guanidine (DTG); parameters: species or system guinea pig; settings: approximately 4 nM radioligand, 25° C., 90 min
Procedure: as §1, with “Following this, the pellet was resuspended in Tris buffer and frozen in 5-10 mL aliquots corresponding to a tissue concentration of 100 mg/mL, at -70° C. Binding characteristics of the membranes were stable for at least one month when stored at -70° C.” left out
Following addition of scintillation cocktail, samples were allowed to equilibrate for at least 4 hr. The amount of bound radioactivity was determined by liquid scintillation spectrometry using a Beckman LS 5000 TA liquid scintillation counter with an efficiency for tritium of approximately 60%. […]
as §2

SMILES | inhibition at 10 µM (sigma receptors [1]) | also measured
C[C@@H]1CCN(C)[C@@H](C)[C@]1(C)CCNC1CCCC1 (relative stereo) [Example 1c, N-cyclopentyl-1,2,3,4-tetramethyl-3-piperidineethanamine] | 57% | –
C[C@@H]1CCN(Cc2ccccc2)[C@@H](C)[C@]1(C)CCN (relative stereo) [Example 2b, 2,3,4-trimethyl-1-(phenylmethyl)-3-piperidineethanamine] | 83% | –
C[C@@H]1CCN(C)[C@@H](C)[C@]1(C)CCN(C)C1CCCC1 (relative stereo) [Example 3, N-cyclopentyl-N-1,2,3,4-pentamethyl-3-piperidineethanamine] | 90% | –
C[C@@H]1CCN(C)[C@@H](C)[C@]1(C)CCN(C)C (relative stereo) [Example 4, N,N-1,2,3,4-hexamethyl-3-piperidineethanamine] | – | Ki (sigma receptors [1]): 23.9 µM; [^3 H]DTG Percent Inhibition (sigma receptors [2]; percent (%) inhibition of binding at 10 μM, guinea pig brain membranes): 20%
C[C@@H]1CCN(C)[C@@H](C)[C@]1(C)CCNC(=O)c1ccsc1 (relative stereo) [Example 5, N-[2-(1,2,3,4-tetramethyl-3-piperidinyl)-ethyl]-3-thiophenecarboxamide] | 79% | –
CCOC(=O)NCC[C@]1(C)[C@H](C)CCN(C)[C@H]1C (relative stereo) [Example 6, ethyl-2-(1,2,3,4-tetramethyl-3-piperidinyl)ethyl carbamate] | 69% | –
C[C@@H]1CCN(C)[C@@H](C)[C@]1(C)CCN(C)C(=O)Cc1ccc(Cl)c(Cl)c1 (relative stereo) [Example 7b, 3,4-dichloro-N-methyl-N-[2-(1,2,3,4-tetramethyl-3-piperidinyl)ethyl]benzeneacetamide] | 94% | –
C[C@@H]1CCN(C)[C@@H](C)[C@]1(C)CCN1CCCC1 (relative stereo) [Example 10, 1,2,3,4-tetramethyl-3-[2-(1-pyrrolidinyl)ethyl]piperidine] | – | Ki (sigma receptors [1]): 5.98 µM; Ki (sigma receptors [2]; mean of at least two separate determinations performed in triplicate): 7.51 µM

Source: patent publication US5290796A, “Substituted 3-piperidinealkanamines and alkanamides and compositions and method of use thereof” (Sterling Winthrop Inc., priority 1992, dated 1994)
